Data published in patent US9029325B2, “Amylin analogues and pharmaceutical compositions thereof” (Novo Nordisk A/S, priority 2011, dated 2015).
Starred links: 1 amine or outer side, 2 acyl side, 3 side chain; linkers in the order of their positions; H or OH if unused. Positions of bridges follow the written chain, without caps; N, C: chain ends. Residues, ends and D or L forms follow the SMILES beside them. *: point of attachment. C20 diacid = O=C(O)CCCCCCCCCCCCCCCCCCC(=O)*; γGlu = O=C(O)[C@H](CCC(=O)[*:2])N[*:1]

Assay: Assay (I) efficacy testing on appetite (food intake), ad libitum fed rat model
Assay type: in vivo, Sprague Dawley (SD) rats
Excerpt: Sprague Dawley (SD) rats from Taconic Europe, Denmark are used for the experiments. The rats have a body weight 200-250 g at the start of experiment. The rats arrive at least 10-14 days before start of experiment to allow acclimatization to experimental settings. During this period the animals are handled at least 2 times. After arrival rats are housed individually for one week in a reversed light/dark phase (meaning that lights are off during daytime and on during nighttime) […]. Since rats are normally active and eat their major part of their daily food intake during the dark period, rats are dosed in the morning right before lights are turned off. This set-up results in the lowest data variation and highst test sensitivity. The experiment is conducted in the rats' home cages and rats have free access to food and water througout the acclimatization period and the experiment period. Each dose of derivative is tested in a group of 5-8 rats. A vehicle group of 6-8 rats is included in each set of testing. Rats are dosed once according to body weight with a 0.01-3 mg/kg solution administered intraperitoneally (ip), orally (po) or subcutaneously (sc). The time of dosing is recorded for each group. After dosing, the rats are returned to their home cages, where they then have access to food and water. The food consumption is recorded individually continuously by on-line registration or manually every hour for 7 hours, and then after 24 h and sometimes 48 h. At the end of the experimental session, the animals are euthanised.
The individual data are recorded in Microsoft excel sheets. Outliers are excluded after applying the Grubbs statistical evaluation test for outliers, and the result is presented graphically using the GraphPad Prism program.

SMILES: CC[C@H](C)[C@H](NC(=O)[C@@H]1CCCN1C(=O)CNC(=O)[C@H](Cc1ccccc1)NC(=O)[C@H](CO)NC(=O)[C@H](CO)NC(=O)[C@H](CO)NC(=O)[C@H](CO)NC(=O)[C@H](CCCNC(=N)N)NC(=O)[C@H](Cc1c[nH]cn1)NC(=O)[C@H](CC(C)C)NC(=O)[C@H](Cc1ccccc1)NC(=O)[C@H](CCC(=O)O)NC(=O)[C@H](C)NC(=O)[C@H](CC(C)C)NC(=O)[C@H](CCCNC(=N)N)NC(=O)[C@H](CCC(N)=O)NC(=O)[C@@H](NC(=O)[C@H](C)NC(=O)[C@@H]1CSSC[C@H](NC(=O)[C@H](Cc2c[nH]cn2)NC(=O)CC[C@H](NC(=O)CCCCCCCCCCCCCCCCCCC(=O)O)C(=O)O)C(=O)N[C@@H](CC(N)=O)C(=O)N[C@@H]([C@@H](C)O)C(=O)N[C@@H](C)C(=O)N[C@@H]([C@@H](C)O)C(=O)N1)[C@@H](C)O)C(=O)N[C@@H](CC(C)C)C(=O)N1CCC[C@H]1C(=O)N1CCC[C@H]1C(=O)N[C@H](C(=O)N[C@@H](CC(=O)O)C(=O)N[C@H](C(=O)NCC(=O)N[C@@H](CO)C(=O)N[C@@H](CC(=O)O)C(=O)N[C@H](C(=O)N[C@@H](Cc1ccc(O)cc1)C(N)=O)[C@@H](C)O)C(C)C)[C@@H](C)O [compound 9] ({C20 diacid-γGlu}-HCNTATCATQRLAEFLHRSSSSFGPILPPTDVGSDTY-NH2; disulfide 2-7 (inferred); C-terminus assumed)
- Food intake reduction 0-24 h 3 nmol/kg (%) (0-24 h): 39%
- Food intake reduction 24-48 h 3 nmol/kg (%) (24-48 h): 32%

SMILES: CC[C@H](C)[C@H](NC(=O)[C@@H]1CCCN1C(=O)CNC(=O)[C@H](Cc1ccccc1)NC(=O)[C@H](CC(N)=O)NC(=O)[C@H](CC(N)=O)NC(=O)[C@H](CO)NC(=O)[C@H](CO)NC(=O)[C@H](Cc1c[nH]cn1)NC(=O)[C@H](CCCNC(=N)N)NC(=O)[C@H](CC(C)C)NC(=O)[C@H](Cc1ccccc1)NC(=O)[C@H](CCC(=O)O)NC(=O)[C@H](C)NC(=O)[C@H](CC(C)C)NC(=O)[C@H](CCCNC(=N)N)NC(=O)[C@H](CCC(N)=O)NC(=O)[C@@H](NC(=O)[C@H](C)NC(=O)[C@@H]1CSSC[C@H](NC(=O)[C@H](Cc2c[nH]cn2)NC(=O)[C@H](Cc2c[nH]cn2)NC(=O)[C@H](Cc2c[nH]cn2)NC(=O)CC[C@H](NC(=O)CCCCCCCCCCCCCCCCCCC(=O)O)C(=O)O)C(=O)N[C@@H](CC(N)=O)C(=O)N[C@@H]([C@@H](C)O)C(=O)N[C@@H](C)C(=O)N[C@@H]([C@@H](C)O)C(=O)N1)[C@@H](C)O)C(=O)N[C@@H](CC(C)C)C(=O)N1CCC[C@H]1C(=O)N1CCC[C@H]1C(=O)N[C@H](C(=O)N[C@@H](CC(N)=O)C(=O)N[C@H](C(=O)NCC(=O)N[C@@H](CO)C(=O)N[C@@H](CC(N)=O)C(=O)N[C@H](C(=O)N[C@@H](Cc1ccc(O)cc1)C(N)=O)[C@@H](C)O)C(C)C)[C@@H](C)O [compound 12] ({C20 diacid-γGlu}-HHHCNTATCATQRLAEFLRHSSNNFGPILPPTNVGSNTY-NH2; disulfide 4-9)
- Food intake reduction 0-24 h 30 nmol/kg (%) (30 nmol/kg, 0-24 h): 70%
- Food intake reduction 24-48 h 30 nmol/kg (%) (30 nmol/kg, 24-48 h): 45%

SMILES: CC[C@H](C)[C@H](NC(=O)[C@@H]1CCCN1C(=O)CNC(=O)[C@H](Cc1ccccc1)NC(=O)[C@H](CC(N)=O)NC(=O)[C@H](CC(N)=O)NC(=O)[C@H](CO)NC(=O)[C@H](CO)NC(=O)[C@H](CCCNC(=N)N)NC(=O)[C@@H](NC(=O)[C@H](CC(C)C)NC(=O)[C@H](Cc1ccccc1)NC(=O)[C@H](CCC(=O)O)NC(=O)[C@H](C)NC(=O)[C@H](CC(C)C)NC(=O)[C@H](CCCNC(=N)N)NC(=O)[C@H](CCC(N)=O)NC(=O)[C@@H](NC(=O)[C@H](C)NC(=O)[C@@H]1CSSC[C@H](NC(=O)[C@H](Cc2c[nH]cn2)NC(=O)CC[C@H](NC(=O)CCCCCCCCCCCCCCCCCCC(=O)O)C(=O)O)C(=O)N[C@@H](CC(N)=O)C(=O)N[C@@H]([C@@H](C)O)C(=O)N[C@@H](C)C(=O)N[C@@H]([C@@H](C)O)C(=O)N1)[C@@H](C)O)C(C)C)C(=O)N[C@@H](CC(C)C)C(=O)N1CCC[C@H]1C(=O)N1CCC[C@H]1C(=O)N[C@H](C(=O)N[C@@H](CC(N)=O)C(=O)N[C@H](C(=O)NCC(=O)N[C@@H](CO)C(=O)N[C@@H](CC(N)=O)C(=O)N[C@H](C(=O)N[C@@H](Cc1ccc(O)cc1)C(N)=O)[C@@H](C)O)C(C)C)[C@@H](C)O [compound 15] ({C20 diacid-γGlu}-HCNTATCATQRLAEFLVRSSNNFGPILPPTNVGSNTY-NH2; disulfide 2-7 (inferred); C-terminus assumed)
- Food intake reduction 0-24 h 3 nmol/kg (%) (0-24 h): 56%
- Food intake reduction 24-48 h 3 nmol/kg (%) (24-48 h): 59%

SMILES: CC[C@H](C)[C@H](NC(=O)[C@@H]1CCCN1C(=O)CNC(=O)[C@H](Cc1ccccc1)NC(=O)[C@H](CC(N)=O)NC(=O)[C@H](CC(N)=O)NC(=O)[C@H](CO)NC(=O)[C@H](CO)NC(=O)[C@H](Cc1c[nH]cn1)NC(=O)[C@H](Cc1c[nH]cn1)NC(=O)[C@H](CC(C)C)NC(=O)[C@H](Cc1ccccc1)NC(=O)[C@H](CCC(=O)O)NC(=O)[C@H](C)NC(=O)[C@H](CC(C)C)NC(=O)[C@H](CCCNC(=N)N)NC(=O)[C@H](CCC(N)=O)NC(=O)[C@@H](NC(=O)[C@H](C)NC(=O)[C@@H]1CSSC[C@H](NC(=O)[C@H](Cc2c[nH]cn2)NC(=O)[C@H](Cc2c[nH]cn2)NC(=O)CC[C@H](NC(=O)CCCCCCCCCCCCCCCCCCC(=O)O)C(=O)O)C(=O)N[C@@H](CC(N)=O)C(=O)N[C@@H]([C@@H](C)O)C(=O)N[C@@H](C)C(=O)N[C@@H]([C@@H](C)O)C(=O)N1)[C@@H](C)O)C(=O)N[C@@H](CC(C)C)C(=O)N1CCC[C@H]1C(=O)N1CCC[C@H]1C(=O)N[C@H](C(=O)N[C@@H](CC(N)=O)C(=O)N[C@H](C(=O)NCC(=O)N[C@@H](CO)C(=O)N[C@@H](CC(N)=O)C(=O)N[C@H](C(=O)N[C@@H](Cc1ccc(O)cc1)C(N)=O)[C@@H](C)O)C(C)C)[C@@H](C)O [compound 17] ({C20 diacid-γGlu}-HHCNTATCATQRLAEFLHHSSNNFGPILPPTNVGSNTY-NH2; disulfide 3-8 (inferred); C-terminus assumed)
- Food intake reduction 0-24 h 3 nmol/kg (%) (0-24 h): 40%
- Food intake reduction 24-48 h 3 nmol/kg (%) (24-48 h): 22%

SMILES: CC[C@H](C)[C@H](NC(=O)[C@@H]1CCCN1C(=O)CNC(=O)[C@H](Cc1ccccc1)NC(=O)[C@H](CC(N)=O)NC(=O)[C@H](CC(N)=O)NC(=O)[C@H](CO)NC(=O)[C@H](CO)NC(=O)[C@H](Cc1c[nH]cn1)NC(=O)[C@H](Cc1c[nH]cn1)NC(=O)[C@H](CC(C)C)NC(=O)[C@H](Cc1ccccc1)NC(=O)[C@H](CCC(=O)O)NC(=O)[C@H](C)NC(=O)[C@H](CC(C)C)NC(=O)[C@H](CCCNC(=N)N)NC(=O)[C@H](CCC(N)=O)NC(=O)[C@@H](NC(=O)[C@H](C)NC(=O)[C@@H]1CSSC[C@H](NC(=O)[C@H](Cc2c[nH]cn2)NC(=O)CC[C@H](NC(=O)CCCCCCCCCCCCCCCCCCC(=O)O)C(=O)O)C(=O)N[C@@H](CC(N)=O)C(=O)N[C@@H]([C@@H](C)O)C(=O)N[C@@H](C)C(=O)N[C@@H]([C@@H](C)O)C(=O)N1)[C@@H](C)O)C(=O)N[C@@H](CC(C)C)C(=O)N1CCC[C@H]1C(=O)N1CCC[C@H]1C(=O)N[C@H](C(=O)N[C@@H](CC(N)=O)C(=O)N[C@H](C(=O)NCC(=O)N[C@@H](CO)C(=O)N[C@@H](CC(N)=O)C(=O)N[C@H](C(=O)N[C@@H](Cc1ccc(O)cc1)C(N)=O)[C@@H](C)O)C(C)C)[C@@H](C)O [compound 18] ({C20 diacid-γGlu}-HCNTATCATQRLAEFLHHSSNNFGPILPPTNVGSNTY-NH2; disulfide 2-7)
- Food intake reduction 0-24 h 3 nmol/kg (%) (0-24 h): 40%
- Food intake reduction 24-48 h 3 nmol/kg (%) (24-48 h): 32%

SMILES: CC[C@H](C)[C@H](NC(=O)[C@@H]1CCCN1C(=O)CNC(=O)[C@H](Cc1ccccc1)NC(=O)[C@H](CC(N)=O)NC(=O)[C@H](CC(N)=O)NC(=O)[C@H](CO)NC(=O)[C@H](CO)NC(=O)[C@H](Cc1c[nH]cn1)NC(=O)[C@H](Cc1c[nH]cn1)NC(=O)[C@H](CC(C)C)NC(=O)[C@H](Cc1ccccc1)NC(=O)[C@H](CCC(=O)O)NC(=O)[C@H](C)NC(=O)[C@H](CC(C)C)NC(=O)[C@H](CCCNC(=N)N)NC(=O)[C@H](CCC(N)=O)NC(=O)[C@@H](NC(=O)[C@H](C)NC(=O)[C@@H]1CSSC[C@H](NC(=O)[C@H](Cc2c[nH]cn2)NC(=O)[C@H](Cc2c[nH]cn2)NC(=O)[C@H](Cc2c[nH]cn2)NC(=O)CC[C@H](NC(=O)CCCCCCCCCCCCCCCCCCC(=O)O)C(=O)O)C(=O)N[C@@H](CCCNC(=N)N)C(=O)N[C@@H]([C@@H](C)O)C(=O)N[C@@H](C)C(=O)N[C@@H]([C@@H](C)O)C(=O)N1)[C@@H](C)O)C(=O)N[C@@H](CC(C)C)C(=O)N1CCC[C@H]1C(=O)N1CCC[C@H]1C(=O)N[C@H](C(=O)N[C@@H](CC(N)=O)C(=O)N[C@H](C(=O)NCC(=O)N[C@@H](CO)C(=O)N[C@@H](CC(N)=O)C(=O)N[C@H](C(=O)N[C@@H](Cc1ccc(O)cc1)C(N)=O)[C@@H](C)O)C(C)C)[C@@H](C)O [compound 22] ({C20 diacid-γGlu}-HHHCRTATCATQRLAEFLHHSSNNFGPILPPTNVGSNTY-NH2; disulfide 4-9 (inferred); C-terminus assumed)
- Food intake reduction 0-24 h 3 nmol/kg (%) (0-24 h): 26%
- Food intake reduction 24-48 h 3 nmol/kg (%) (24-48 h): 5%
